Key:
[1] = target: NdCld wild-type; experiment: Titration of SCN− and F− to NdCld wild-type, UV–vis, dissociation constant; type: binding, Candidatus Nitrospira defluvii; conditions: pH 5.5, 25°C
Procedure: SCN^− and F^− were titrated to NdCld wild-type for the determination of the dissociation constant (KD). The UV–visible electronic absorption spectrum of wild-type NdCld is altered upon binding of SCN^− or F^− if the respective ligand acts as a sixth ligand to haeme b. Binding of F^− was monitored by the change in absorbance at 612 nm [charge transfer band (CT1)] and binding of SCN^− was followed at 411 nm (Soret band). The measurements were performed using a Zeiss Specord S10 DiodeArray spectrophotometer equipped using a quartz cuvette with a path length of 10 mm under constant stirring at 25°C. Samples of 2 μM concentration in 50 mM MES buffer, pH 5.5, were used. Final ligand concentrations were 120 mM (F^−) and 50 mM (SCN^−).

[2] = target: T1, NdCld (chlorite dismutase from 'Candidatus Nitrospira defluvii') (Nitrospira defluvii, UniProt B3U4H7); experiment: biochemical; design: gene cld
T1 sequence (B3U4H7 27-264): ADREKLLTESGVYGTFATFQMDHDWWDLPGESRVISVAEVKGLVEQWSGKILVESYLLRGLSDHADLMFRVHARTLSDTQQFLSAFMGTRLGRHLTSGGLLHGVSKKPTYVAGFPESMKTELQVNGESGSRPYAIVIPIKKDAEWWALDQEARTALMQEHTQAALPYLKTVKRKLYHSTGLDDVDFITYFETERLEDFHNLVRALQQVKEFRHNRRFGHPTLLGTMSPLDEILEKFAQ

[3] = target: T1, NdCld (chlorite dismutase from 'Candidatus Nitrospira defluvii'); experiment: DSC, absolute Tm with ligand; type: binding; design: gene cld; TEV-cleavable N-terminal Strep-II tag, modified pET-21b(+), E. coli Tuner (DE3) with hemin added; haeme b pentamer; conditions: 50 mM MES pH 5.5
[4] = test system: NdCld (chlorite dismutase), substrate chlorite; experiment: Chlorite degradation, O2 release with Clark-type electrode (steady state); type: biochemical, Candidatus Nitrospira defluvii; conditions: 200 mM fluoride, 175 μM chlorite, pH 5.5
Procedure: Cld-mediated chlorite reduction and concomitant oxygen generation was monitored by measuring the release of O2 using a Clark-type electrode (Oxygraph Plus; Hansatech Instruments). The electrode was inserted into a stirred water bath maintained at 30°C. The electrode was equilibrated to 100% O2 saturation by flushing with O2, further 0% saturation was achieved by bubbling with N2 until a plateau was reached. Reactions were carried out in O2-free 50 mM MES buffer, pH 5.5. […] A high excess of ligands (200 mM F^−, 10 mM SCN^−) was present in the respective measurements. […] Molecular oxygen production rates (μM O2 s^−1) were obtained from the initial linear time traces (initial velocities, v0) for direct comparison.

[5] = target: T1, NdCld (chlorite dismutase from 'Candidatus Nitrospira defluvii'); design: gene cld; conditions: 200 mM fluoride, 175 μM chlorite, 50 nM enzyme, 50 mM MES pH 5.5, 30 °C
[6] = target: SaHemQ; design: method as in PMID 23737523; conditions: read-out: KD of haeme binding; cited from earlier work
[7] = target: BsHemQ; design: method as in PMID 20543190; conditions: read-out: KD of haeme binding; cited from earlier work
[8] = target: LmHemQ; design: method as in PMID 25602700; conditions: read-out: KD of haeme binding; cited from earlier work
[9] = target: T1, NdCld (chlorite dismutase from 'Candidatus Nitrospira defluvii'); experiment: UV-vis titration, Soret band […] nm; type: binding; design: gene cld; TEV-cleavable N-terminal Strep-II tag, modified pET-21b(+), E. coli Tuner (DE3) with hemin added; haeme b pentamer

F [F^−, fluoride]
Kd ([1]; F− to wild-type protein): 5900 ± 400 µM | Kd [2]: 5900 ± 400 µM | Tm ([3]; 200 mM fluoride): 102 °C | v0 of wild-type NdCld remaining relative to ligand free [4]: 53% | v0 remaining [5]: 53%

C=CC1=C(C)c2cc3[n-]c(cc4[n-]c(cc5nc(cc1n2)C(C)=C5C=C)c(C)c4CCC(=O)O)c(CCC(=O)O)c3C.[Fe+2] [haeme, haeme b]
Kd [6]: 1 µM | Kd [7]: 30 to 40 µM | Kd [8]: 7 to 16 µM

N#CS [SCN^−, thiocyanate]
Kd ([1]; SCN− to wild-type protein): 150 ± 40 µM | Tm ([3]; 10 mM thiocyanate, main peak): 94 °C | Kd [9]: 150 ± 40 µM

Reference: paper PMC4793301, “From chlorite dismutase towards HemQ–the role of the proximal H-bonding network in haeme binding” (Bioscience Reports, 2016)
